One compound from US9308244B2, “Combination therapy using active immunotherapy” (immatics Biotechnologies GmbH, priority 2007, dated 2016) can be followed below.

Where two headings read alike, the source gives them in different places.

For data set [1], the system named is OVA-001 specific CD8+ T-cells. It counts as in vivo, C57BL/6 mice. The note with it: continuous treatment; for OVA-001 specific CD8+ T-cells, mean: OVA-001 immunized; for Immune response towards OVA-001 compared with vehicle treated controls (in words): both sorafenib dosages, high-dose (80 mg/kg bw) sunitinib, 80 mg/kg.
For data set [2], the system named is OVA-001 specific CD8+ T-cells. It counts as in vivo, C57BL/6 mice.
The test system of data set [3] is HLA-A*02+ PBMCs (CD4+ and CD8+ effector cells). The following applies: absence of target cells or autologous target cells. The protocol:
Two fresh buffy coat (HLA-A*02+ and HLA-A*02−) were obtained from the Katharinenhospital Stuttgart. PBMCs were isolated by standard density gradient isolation and incubated overnight in T-cell medium (TCM) for human in vitro priming as in WP03 #4. Ca2+ and Mg2+ free PBS (Cambrex) washed HLA-A*02+ PBMCs were labeled at 1×10^7 cells/ml with 1 μM CFSE (Fluka, Buchs, Germany) at 37° C. for 4 minutes. Labeling was stopped by adding the same volume heat inactivated FCS (Invitrogen) and labeled cells were washed in TCM. Irradiation of target or feeder cells, if indicated, was performed at 33 Gy using a 1000 Elite gammacell (MDS Nordion, Ottawa, Canada). Stock solutions of sorafenib tosylate and sunitinib malate were prepared in DMSO (Merck, Darmstadt, Germany) and frozen aliquoted at −80° C. Mixed lymphocyte reactions were performed by coculturing 2×10^5 CFSE labeled effector plus 2×10^5 irradiated target cells as indicated per well of 96 well round bottom plates in 200 μl TCM in the presence of indicated concentrations of sorafenib, sunitinib or DMSO at 37° C. and 5% CO2 (day 1). On day 4, 100 μl supernatant was removed and 100 μl TCM supplemented with the original concentration of TKIs was added. […] Cells were washed, fixed in PFEA containing 1% formaldehyde (Fluka) and analyzed on a FACSCalibur (BD). […]

The nature of data set [4]: HPLC quantification of TKI plasma levels in mouse models. It counts as in vivo. The following applies: oral dosing.
Description: The proteins were precipitated with 40 μl 100% acetonitril (Acros, Geel, Belgium), centrifuged and filtered through a 0.2 μm PVDF filter. 10 μl was directly injected to the HPLC system.
The HPLC system consisted of a Binary HPLC pump (Shimadzu LC10aVP), a Shimadzu SIL-10aVP autosampler, a Shimadzu CTO-10asVP column oven and a Shimadzu SPD10aVP detector. Data acquisition and analysis was performed using the Shimadzu Class-VP 7.3 software. Chromatographic separation was carried out on a reverse phase C18 column (Reprosil Pur ODS-3μ, 60×2 mm). To protect the analytical column a guard column has been used (Reprosil Pur ODS-5μ, 10×2 mm). Eluent A consisted of water (LCMS grade, Acros, Geel, Belgium), modified by 0.1% formic acid (Merck, Darmstadt, Germany) and eluent B was 80% acetonitril (Acros, Geel, Belgium) with 0.1% formic acid (Merck, Darmstadt, Germany).
The following gradient was used: 5 min 25% eluent B, 15 min 62.5% eluent B, 6 min 80% eluent B and 5 min 80% eluent B. The temperature of the autosampler was kept at 4° C. The temperature of the column was maintained at 30° C. The detection wavelength was set at 400 nm, the injection volume was 10 μl. The column was equilibrated with the mobile phase at a flow rate 0.5 ml/min.
For Sorafenib analysis, 10 μl of 50% acetonitril (Acros, Geel, Belgium) was added to 50 serum or medium in 0.5 ml PCR tubes and mixed for 10 seconds. […]
For data set [5] the following is noted: mouse, in vivo. The protocol:
Female C57BL/6 mice (20-25 g, Harlan Winkelmann GmbH, Borchen, Germany) were used for all experiments described in this section. Animals were kept in the animal facility of the Dept. of Immunology at the University of Tuebingen. Animals were cared for by trained animal keepers and health status of animals was supervised by the veterinaries of the University of Tübingen. Feeding with drug was also performed in part by the local animal keepers after special training. All animals were supplied with water and food ad libitum. The described experiments were performed according to procedure no. IM1/06 approved by the Regierungsprasidium Tuebingen.
A liquid, viscous vehicle composed of 30% (w/v) Cremophor EL (Sigma, Deisenhofen, Germany), 30% (w/v) PEG 400 (Sigma, Deisenhofen, Germany), 10% ethanol p.a., 10% glucose was used. Sunitinib and sorafenib were suspended in vehicle according to the planned dosages in a way that […] body weight had to be applied to all mice, according to approx. 50 μl of suspension. Feasible aliquots were prepared from suspensions and from vehicle and stored until use at −20° C. in the dark. Thawed substance was stored at 4° C. and used within the next three days. Animals were weighed before start of treatment and thereafter weekly. The deduced dosage was applied daily using a 1 ml syringe with gavage into the backward cavity of the mouth of the animal without anesthesia. Drug delivery into blood plasma was controlled as described in example 1.
1) Immunization under continuous treatment with tyrosine kinase inhibitors. Pretreatment phase was two weeks (see FIG. 5A). […]
3) The experimental design was identical to a) Beside negative and positive control groups, groups treated with 60 mg/kg body weight sorafenib, and 20 and 40 mg/kg body weight sunitinib were included (6 mice per group). For spleen cells, CD4, Tregs, CD8 cells, and B cells were assessed, for PBMCs CD4, CD8, B cells and Tregs were analyzed.

For data set [6], the system named is CD4+ CD25+ Tregs, T cells, B cells, splenocytes. Description: Immune cell populations in spleen and PBMCs of TKI-treated mice. The note with it: 4 weeks treatment. The data set is classed as in vivo, C57BL/6 mice.

Take `CNC(=O)c1cc(Oc2ccc(NC(=O)Nc3ccc(Cl)c(C(F)(F)F)c3)cc2)ccn1` [Sorafenib, 4-(4-{3-[4-Chloro-3-(trifluoromethyl)phenyl]ureido}phenoxy)-N-methylpyrid-ine-2-carboxamide]: the “OVA-001 specific CD8+ T-cells, mean” value in data set [1] (15 mg/kg bw, n=4) was 0.72%; in data set [1] (60 mg/kg bw, n=12), 1.81%. Further, the “Immune response towards OVA-001 compared with vehicle treated controls (in words)” value is on record as “reduced specific T-cell responses” in data set [1] and “reduced immune response” in data set [1] (listed as sorafenib). Moreover, the “Reversibility of the immunosuppressive influence after discontinuation of treatment” value in data set [2] (mouse, in vivo) is “rapidly reversed”. Also, the “Numbers of OVA-001-specific T-cells” value in data set [2] (treatment stopped 48 h before first immunization, 80 mg/kg bw sunitinib, both sorafenib dosages, differences not significant) is listed as “Reduced numbers”. Besides, the “Baseline proliferation of effector cells” value in data set [3] was “did not increase”. In data set [4], the “Bioavailability / plasma levels at the used doses” value is recorded as “confirmed to reach plasma levels shown by others to be effective in tumor growth inhibition”. In data set [5], the Toxic side effects entry is recorded as “without any observed toxic side effects”. For the same compound, the “Number of CD4+ CD25+ Tregs among total CD4+ cells in PBMCs” value in data set [6] was “unchanged or even slightly elevated”.
